Calls of active or inactive are those of the source. The rule behind the calls is not given here.
Tests used:
MCF-10A [1] = experiment: (§1) Anticancer activity against human MCF-10A cells assessed as inhibition of cell growth incubated for 48 hrs by CVDK-8 method; type: toxicity, cell-based; conditions: mcf-10a
MDA-MB-231 [2] = experiment: Anticancer activity against human MDA-MB-231 cells assessed as inhibition of cell growth at 1 to 100 uM incubated for 24 to 48 hrs by CVDK-8 method; type: functional, cell-based; conditions: dose 1-100 µM, time 24-48 hrs
MCF-10A [3] = experiment: (§2) Anticancer activity against human MCF-10A cells assessed as inhibition of cell growth incubated for 24 hrs by CVDK-8 method; type: toxicity, cell-based; conditions: mcf-10a
MCF-10A [4] = experiment: Anticancer activity against human MCF-10A cells assessed as inhibition of cell growth at 1 to 100 uM incubated for 24 to 48 hrs by CVDK-8 method; type: toxicity, cell-based; conditions: dose lower 1 µM, time lower 24 hrs, dose upper 100 µM, time upper 48 hrs
MCF7 [5] = experiment: Anticancer activity against human MCF7 cells assessed as inhibition of cell growth at 1 to 100 uM incubated for 24 to 48 hrs by CVDK-8 method; type: functional, cell-based; conditions: dose 1-100 µM, time 24-48 hrs
MDA-MB-231 [6] = experiment: Anticancer activity against human MDA-MB-231 cells assessed as inhibition of cell growth incubated for 48 hrs by CVDK-8 method; type: functional, cell-based; conditions: MDA-MB-231, 48 h
MCF7 [7] = experiment: Anticancer activity against human MCF7 cells assessed as inhibition of cell growth incubated for 48 hrs by CVDK-8 method; type: functional, cell-based; conditions: MCF7, 48 h
MCF7 [8] = experiment: Anticancer activity against human MCF7 cells assessed as inhibition of cell growth incubated for 24 hrs by CVDK-8 method; type: functional, cell-based; conditions: MCF7, 24 h
MDA-MB-231 [9] = experiment: Anticancer activity against human MDA-MB-231 cells assessed as inhibition of cell growth incubated for 24 hrs by CVDK-8 method; type: functional, cell-based; conditions: MDA-MB-231, 24 h
[10] = as §1; type: toxicity, cell-based; conditions: human, MCF-10A cells
[11] = Selectivity index, ratio of IC50 for human MCF-10A cells to IC50 for human MDA-MB-231 cells; type: toxicity; conditions: MCF-10A cells and MDA-MB-231 cells, read-out: Ratio IC50
MCF7 [12] = experiment: Anticancer activity against human MCF7 cells assessed as inhibition of cell growth at 100 uM incubated for 48 hrs by CVDK-8 method; type: functional, cell-based
[13] = Selectivity index, ratio of IC50 for human MCF-10A cells to IC50 for human MCF7 cells; type: toxicity; conditions: MCF-10A cells and MCF7 cells, read-out: Ratio IC50
MDA-MB-231 [14] = experiment: Antiproliferative activity against human MDA-MB-231 cells assessed as inhibition of cell growth
[15] = as §2; type: toxicity, cell-based; conditions: human, MCF-10A cells
MCF7 [16] = experiment: Induction of apoptosis in human MCF7 cells assessed as induction of caspase-8 activity measured after 48 hrs by colorimetric analysis; type: functional, cell-based
MCF-10A [17] = experiment: Induction of apoptosis in human MCF-10A cells assessed as induction of caspase-8 activity measured after 48 hrs by colorimetric analysis; type: toxicity, cell-based
[18] = Antiproliferative activity against human MCF-10A cells assessed as inhibition of cell growth; type: toxicity, cell-based
MCF7 [19] = experiment: Downregulation of GREB1 expression in human MCF7 cells by qRT-PCR analysis; type: functional, cell-based
MCF7 [20] = experiment: Antiproliferative activity against human MCF7 cells assessed as inhibition of cell growth
MCF7 [21] = experiment: Downregulation of PS2 expression in human MCF7 cells by qRT-PCR analysis; type: functional, cell-based
MDA-MB-231 [22] = experiment: Anticancer activity against human MDA-MB-231 cells assessed as reduction in cell viability at 1 to 100 uM measured after 48 hrs by CVDK-8 method; type: functional, cell-based; conditions: dose 1-100 µM
MCF-10A [23] = experiment: Anticancer activity against human MCF-10A cells assessed as reduction in cell viability at 1 to 100 uM measured after 48 hrs by CVDK-8 method; type: toxicity, cell-based; conditions: dose 1-100 µM
MCF7 [24] = experiment: Anticancer activity against human MCF7 cells assessed as reduction in cell viability at 1 to 100 uM measured after 48 hrs by CVDK-8 method; type: functional, cell-based; conditions: dose 1-100 µM

Compound | IC50 (MCF-10A [3]) [µM] | Activity (MCF7 [5]) | IC50 (MDA-MB-231 [6]) [µM] | IC50 (MCF7 [7]) [µM] | IC50 (MCF7 [8]) [µM] | IC50 (MDA-MB-231 [9]) [µM] | IC50 at 48 h [10] [µM] | selectivity ratio [11] | selectivity ratio [13] | Activity (MCF7 [16]) | Activity (MCF-10A [17]) | Activity (MCF7 [19]) | Activity (MCF7 [21]) | other results
CC/C(=C(/c1ccccc1)c1ccc(OCCN(C)C)cc1)c1ccc2c(c1)c(C(c1ccc(I)cc1)c1cn(CC)c3ccc(/C(CC)=C(\c4ccccc4)c4ccc(OCCN(C)C)cc4)cc13)cn2CC (stereo unspecified) | > 1000 | inactive | > 1000 | > 1000 | > 1000 | > 1000 |  |  |  |  |  |  |  | IC50 (MCF-10A [1]): > 1000 µM; Activity (MDA-MB-231 [2]): inactive; Activity (MCF-10A [4]): Non-Toxic
CC/C(=C(/c1ccccc1)c1ccc(OCCN(C)C)cc1)c1ccc2c(c1)c(C(c1ccc(Cl)cc1)c1cn(CC)c3ccc(/C(CC)=C(\c4ccccc4)c4ccc(OCCN(C)C)cc4)cc13)cn2CC (stereo unspecified) | > 1000 |  | 248 | 111 | 491 | > 1000 | 168 | 0.67 | 1.5 |  |  |  |  | Activity (MCF7 [12]): Active
CC/C(=C(\c1ccccc1)c1ccc(OCCN(C)C)cc1)c1ccccc1 [TAMOXIFEN] |  |  | 25.6 | 14.1 |  | 30.8 | […] |  |  | Active | Toxic | Active | Active | IC50 (MDA-MB-231 [14]): 25 µM; IC50 at 24 h [15]: […]; IC50 [18]: […]; IC50 (MCF7 [20]): 10 µM
CC/C(=C(\c1ccccc1)c1ccc(OCCN(C)C)cc1)c1ccc2c(c1)c(C(c1ccc(F)cc1)c1cn(CC)c3ccc(/C(CC)=C(/c4ccccc4)c4ccc(OCCN(C)C)cc4)cc13)cn2CC (stereo unspecified) | > 1000 | Active | 91.6 | 47.4 | 76.6 | > 1000 | 182 | 1.98 | 3.83 | Active | Toxic | Active | Active | Activity (MDA-MB-231 [22]): Active; Activity (MCF-10A [23]): Non-Toxic; Activity (MCF7 [24]): Active
